Source: patent US6677488B2, “Substituted biphenyl compounds for the treatment of inflammation” (G.D. Searle & Co., priority 1995, dated 2004)

First: CS(=O)(=O)c1ccc(-c2ccccc2-c2ccc(F)cc2)cc1 [Example 1, 1-(4-Fluorophenyl)-2-[4-(methylsulfonyl)phenyl]benzene]
Second: NS(=O)(=O)c1ccc(-c2ccccc2-c2ccc(F)cc2)cc1 [Example 2, 4-[2-(4-Fluorophenyl)phenyl]benzenesulfonamide]
The melting point of the first is lower: 178 to 179 °C for the first, 187.3 to 188.2 °C for the second.

First: NS(=O)(=O)c1ccc(-c2ccccc2-c2ccc(Cl)cc2)cc1 [Example 3, 4-[2-(4-Chlorophenyl)phenyl]benzenesulfonamide]
Second: CS(=O)(=O)c1ccc(-c2ccccc2-c2ccc(Cl)cc2)cc1 [Example 8, 1-(4-Chlorophenyl)-2-[4-(methylsulfonyl)phenyl]benzene]
The melting point of the first is higher: 206.2 to 207 °C for the first, 180.2 to 180.6 °C for the second.

First: COc1ccc(-c2ccccc2-c2ccc(S(C)(=O)=O)cc2)cc1F [Example 4, 2-Fluoro-1-methoxy-4-[2-[4-(methylsulfonyl)phenyl]phenyl]benzene]
Second: COc1ccc(-c2ccccc2-c2ccc(S(C)(=O)=O)cc2)cc1Cl [Example 5, 2-Chloro-1-methoxy-4-[2-[4-(methylsulfonyl)phenyl]phenyl]benzene]
The melting point of the first is lower: 136.2 to 136.6 °C for the first, 161.5 to 162.3 °C for the second.

First: COc1ccc(-c2ccccc2-c2ccc(S(N)(=O)=O)cc2)cc1Cl [Example 7, 4-[2-(3-Chloro-4-methoxyphenyl)phenyl]benzenesulfonamide]
Second: NS(=O)(=O)c1ccc(-c2ccccc2-c2ccc(F)c(Cl)c2)cc1 [Example 12, 4-[2-(3-Chloro-4-fluorophenyl)phenyl]benzenesulfonamide]
The melting point of the first is lower: 179.5 to 180.2 °C for the first, 192.5 to 193.2 °C for the second.

Compared with `NS(=O)(=O)c1ccc(-c2ccccc2-c2ccc(C(F)(F)F)cc2)cc1` [Example 9, 4-[2-[4-(Trifluoromethyl)phenyl]phenyl]benzenesulfonamide], `CS(=O)(=O)c1ccc(-c2ccccc2-c2ccc(F)c(Cl)c2)cc1` [Example 10, 2-Chloro-1-fluoro-4-[2-[4-(methylsulfonyl)phenyl]phenyl]benzene] is lower in melting point: 187.5 to 187.8 °C for the first, 179.5 to 181.1 °C for the second.

Compared with `CS(=O)(=O)c1ccc(-c2cc(F)c(F)cc2-c2ccc(F)cc2)cc1` [Example 11, 1,2-Difluoro-4-(4-fluorophenyl)-5-[4-(methylsulfonyl)phenyl]benzene], `NS(=O)(=O)c1ccc(-c2cc(F)c(F)cc2-c2ccc(F)cc2)cc1` [Example 13, 4-[3,4-Difluoro-6-(4-fluorophenyl)phenyl]benzenesulfonamide] is higher in melting point: 172.8 to 173.5 °C for the first, 190.2 to 191.5 °C for the second.

First: CS(=O)(=O)c1ccc(-c2cc(F)c(F)cc2-c2ccc(F)c(Cl)c2)cc1 [Example 14, 1-(3-Chloro-4-fluorophenyl)-4,5-difluoro-2-[4-(methylsulfonyl)phenyl]benzene]
Second: NS(=O)(=O)c1ccc(-c2cc(F)c(F)cc2-c2ccc(F)c(Cl)c2)cc1 [Example 16, 4-[2-(3-Chloro-4-fluorophenyl)-4,5-difluorophenyl]benzenesulfonamide]
The melting point of the first is higher: 172.2 to 172.5 °C for the first, 162.5 to 162.8 °C for the second.

First: NS(=O)(=O)c1ccc(-c2c(F)c(F)c(F)c(F)c2-c2ccc(F)cc2)cc1 [Example 15, 4-[2,3,4,5-Tetrafluoro-6-(4-fluorophenyl)phenyl]benzenesulfonamide]
Second: NS(=O)(=O)c1ccc(-c2cc3c(cc2-c2ccc(F)cc2)OCO3)cc1 [Example 22, 4-[6-(4-Fluorophenyl)-1,3-benzodioxol-5-yl]benzenesulfonamide]
The melting point of the first is higher: 202 to 203 °C for the first, 191 to 192.5 °C for the second.

Compared with `CS(=O)(=O)c1ccc(-c2cc3c(cc2-c2ccc(F)cc2)OCO3)cc1` [Example 17, 5-(4-Fluorophenyl)-6-[4-(methylsulfonyl)phenyl]-1,3-benzodioxole], `CS(=O)(=O)c1ccc(-c2cc(F)c(F)cc2-c2ccc3c(c2)OCO3)cc1` [Example 24, 5-[4,5-Difluoro-2-[4-(methylsulfonyl)phenyl]phenyl]-1,3-benzodioxole] is lower in melting point: 173 to 174 °C for the first, 110 to 111 °C for the second.

First: COc1ccc(-c2cc(F)c(F)cc2-c2ccc(S(C)(=O)=O)cc2)cc1Cl [Example 18, 1-(3-Chloro-4-methoxyphenyl)-4,5-difluoro-2-[4-(methylsulfonyl)phenyl]benzene]
Second: COc1ccc(-c2cc(F)c(F)cc2-c2ccc(S(C)(=O)=O)cc2)cc1F [Example 19, 1,2-Difluoro-4-(3-fluoro-4-methoxyphenyl)-5-[4-(methylsulfonyl)phenyl]benzene]
The melting point of the first is lower: 147.5 to 148.5 °C for the first, 159.2 to 159.7 °C for the second.

Compared with `COc1ccc(-c2cc(F)c(F)cc2-c2ccc(S(N)(=O)=O)cc2)cc1F` [Example 21, 4-[4,5-Difluoro-2-(3-fluoro-4-methoxyphenyl)phenyl]benzenesulfonamide], `COc1ccc(-c2cc(F)c(F)cc2-c2ccc(S(N)(=O)=O)cc2)cc1C` [Example 39, 4-[4,5-Difluoro-2-(4-methoxy-3-methylphenyl)phenyl]benzenesulfonamide] is lower in melting point: 132.2 to 132.8 °C for the first, 120 to 121.8 °C for the second.

First: Cc1ccc(-c2cc(F)c(F)cc2-c2ccc(S(C)(=O)=O)cc2)cc1 [Example 23, 1,2-Difluoro-4-(4-methylphenyl)-5-[4-(methylsulfonyl)phenyl]benzene]
Second: Cc1ccc(-c2cc(F)c(F)cc2-c2ccc(S(N)(=O)=O)cc2)cc1 [Example 25, 4-[4,5-Difluoro-2-(4-methylphenyl)phenyl]benzenesulfonamide]
The melting point of the first is higher: 147 to 148 °C for the first, 103 to 104 °C for the second.

First: NS(=O)(=O)c1ccc(-c2cc(F)c(F)cc2-c2ccc3c(c2)OCO3)cc1 [Example 26, 4-[2-(1,3-Benzodioxol-5-yl)-4,5-difluorophenyl]benzenesulfonamide]
Second: NS(=O)(=O)c1ccc(-c2cc(F)c(F)cc2-c2ccc3c(c2)OCCO3)cc1 [Example 43, 4-[2-(2,3-Dihydro-1,4-benzodioxin-6-yl)-4,5-difluorophenyl]benzenesulfonamide]
The melting point of the first is higher: 142 to 143 °C for the first, 107 to 108 °C for the second.

Compared with `Cc1ccc(-c2cc(F)c(F)cc2-c2ccc(S(C)(=O)=O)cc2)cc1Cl` [Example 27, 1-(3-Chloro-4-methylphenyl)-4,5-difluoro-2-[4-(methylsulfonyl)phenyl]benzene], `Cc1cc(-c2cc(F)c(F)cc2-c2ccc(S(C)(=O)=O)cc2)ccc1Cl` [Example 32, 4-(4-Chloro-3-methylphenyl)-1,2-difluoro-5-[4-(methylsulfonyl)phenyl]benzene] is higher in melting point: 138 to 139 °C for the first, 151.5 to 152.2 °C for the second.

Compared with `CN(C)c1ccc(-c2cc(F)c(F)cc2-c2ccc(S(C)(=O)=O)cc2)cc1Cl` [Example 28, 2-Chloro-4-[4,5-difluoro-2-[4-(methylsulfonyl)phenyl]phenyl]-N,N-dimethylbenzenamine], `CN(C)c1ccc(-c2cc(F)c(F)cc2-c2ccc(S(N)(=O)=O)cc2)cc1Cl` [Example 30, 4-[2-[3-Chloro-4-(N,N-dimethylamino)phenyl]-4,5-difluorophenyl]benzenesulfonamide] is higher in melting point: 129 to 130 °C for the first, 193 to 194 °C for the second.

Compared with `Cc1ccc(-c2cc(F)c(F)cc2-c2ccc(S(N)(=O)=O)cc2)cc1Cl` [Example 29, 4-[2-(3-Chloro-4-methylphenyl)-4,5-difluorophenyl]benzenesulfonamide], `Cc1cc(-c2cc(F)c(F)cc2-c2ccc(S(N)(=O)=O)cc2)ccc1Cl` [Example 36, 4-[2-(4-Chloro-3-methylphenyl)-4,5-difluorophenyl]benzenesulfonamide] is higher in melting point: 139 to 140 °C for the first, 141.5 to 142.8 °C for the second.

First: Cc1cc(-c2cc(F)c(F)cc2-c2ccc(S(C)(=O)=O)cc2)ccc1F [Example 31, 1,2-Difluoro-4-(4-fluoro-3-methylphenyl)-5-[4-(methylsulfonyl)phenyl]benzene]
Second: Cc1cc(-c2cc(F)c(F)cc2-c2ccc(S(N)(=O)=O)cc2)ccc1F [Example 34, 4-[4,5-Difluoro-2-(4-fluoro-3-methylphenyl)phenyl)benzenesulfonamide]
The melting point of the first is higher: 167.2 to 167.5 °C for the first, 151.5 to 152 °C for the second.

Compared with `Cc1ccc(-c2cc(F)c(F)cc2-c2ccc(S(C)(=O)=O)cc2)cc1C` [Example 33, 1,2-Difluoro-4-(3,4-dimethylphenyl)-5-[4-(methylsulfonyl)phenyl]benzene], `Cc1ccc(-c2cc(F)c(F)cc2-c2ccc(S(N)(=O)=O)cc2)cc1C` [Example 37, 4-[4,5-Difluoro-2-(3,4-dimethylphenyl)phenyl]benzenesulfonamide] is higher in melting point: 125.1 to 125.8 °C for the first, 132.8 to 133.9 °C for the second.

First: COc1ccc(-c2cc(F)c(F)cc2-c2ccc(S(C)(=O)=O)cc2)cc1C [Example 35, 1,2-Difluoro-4-(4-methoxy-3-methylpheny)-5-[4-(methylsulfonyl)phenyl]benzene]
Second: COc1ccc(-c2cc(F)c(F)cc2-c2ccc(S(C)(=O)=O)cc2)cc1OC [Example 40, 1,2-Difluoro-4-(3,4-dimethoxypheny)-5-[4-(methylsulfonyl)phenyl]benzene]
The melting point of the first is higher: 160.5 to 161.5 °C for the first, 140 to 141 °C for the second.

Compared with `COc1c(Cl)cc(-c2cc(F)c(F)cc2-c2ccc(S(N)(=O)=O)cc2)cc1Cl` [Example 38, 4-[2-(3,5-Dichloro-4-methoxyphenyl)-4,5-difluorophenyl]benzenesulfonamide], `COc1ccc(-c2cc(F)c(F)cc2-c2ccc(S(N)(=O)=O)cc2)cc1OC` [Example 42, 4-[4,5-Difluoro-2-(3,4-dimethoxyphenyl)phenyl]benzenesulfonamide] is higher in melting point: 145.5 to 146 °C for the first, 157 to 158 °C for the second.

First: CS(=O)(=O)c1ccc(-c2cc(F)c(F)cc2-c2ccc3c(c2)OCCO3)cc1 [Example 41]
Second: CS(=O)(=O)c1ccc(-c2cc(Cl)c(Cl)cc2-c2ccc(F)cc2)cc1 [Example 44, 1,2-Dichloro-4-(4-fluorophenyl)-5-[4-(methylsulfonyl)phenyl]benzene]
The melting point of the first is lower: 82 to 83 °C for the first, 143.5 to 144.5 °C for the second.

In the case of `COc1ccc(-c2ccccc2-c2ccc(S(N)(=O)=O)cc2)cc1F` [Example 6, 4-[2-(3-Fluoro-4-methoxyphenyl)phenyl]benzenesulfonamide], the melting point is reported as 143.5 to 145.5 °C (dec.).
With `COc1ccc(-c2cc(F)c(F)cc2-c2ccc(S(N)(=O)=O)cc2)cc1Cl` [Example 20, 4-[2-(3-Chloro-4-methoxyphenyl)-4,5-difluorophenyl]benzenesulfonamide] the melting point was 70 °C (dec.).
